Consider 42 compounds from patent US12427146B2, “C-terminal SRC kinase inhibitors” (INVENTISBIO CO., LTD., priority 2018, dated 2025).

One may read the IC50 as the concentration that inhibits the measured activity by half.

Molecules are shown by their SMILES. Where only a bound is given, the exact number is not on record here.

One assay concerns the target LCK protein (Homo sapiens (Human), UniProt P06239). Description: LCK Inhibition Assay. The format is biochemical. As for the experimental part:
Test compound was dissolved in DMSO at 10 mM. 45 uL of compound was transfer into a 384-well compound source plate (LABCYTE cat #P-05525) and serially diluted at 1:3 ratio to create a 11-point dilutions. The same volume of DMSO was adopted as high control. 20 nL of these compounds DMSO dilutes were dispensed into a new 384-well assay plate by Echo 550. LCK protein (0.50 nM, Cama Biosciences, cat #08-170), florescent labeled substrate FLPeptide4 (2 μM, PerkinElmer, cat #760348) was prepared in kinase assay buffer (50 mM HEPES (pH 7.5), 10 mM MgCl2, 0.01% Brij-35, 2 mM DTT and 0.005 mg/ml BSA). 15 uL of kinase assay buffer containing LCK protein and substrate was transferred to assay plate and incubate at RT for 30 minutes. Kinase assay buffer supplemented with substrate peptides was employed as low control to monitor the background. 400 μM ATP was prepared in kinase assay buffer and 5 μL of ATP solution was added to each well to start the reaction. The assay plate was incubated at 25° C. for 90 minutes and the reaction was stopped by adding 40 μL of 0.5 M EDTA.
(§1) Phosphorylated fluorescent-tagged peptides were differentiated from non-phosphorylated peptides by separating using Caliper EZ Reader II and the detection was directly converted to conversion ratio.
(§2) For estimation of IC50, the % substrate conversion values are transformed to % Inhibition Ratio by applying the following equation: […]

A further assay addresses CSK protein (Homo sapiens (Human), UniProt P41240). As to the kind of experiment: CSK Inhibition Assay. The format is biochemical. As for the experimental part: Test compound was dissolved in DMSO at 10 mM. 45 uL of compound was transferred into a 384-well compound source plate (LABCYTE cat #P-05525) and serially diluted at 1:3 ratio to create a 11-point dilutions. The same volume of DMSO was adopted as high control. 20 nL of these compounds DMSO dilutes were dispensed into a new 384-well assay plate by Echo 550. […] 15 uL of kinase assay buffer containing CSK protein and substrate was transferred to assay plate and incubated at RT for 30 minutes. Kinase assay buffer supplemented with substrate peptides was employed as low control to monitor the background. 4 μM of ATP was prepared in kinase assay buffer and 5 μL of ATP solution was added to each well to start the reaction. The assay plate was incubated at 25° C. for 90 minutes and the reaction was stopped by adding 40 μL of 0.5 M EDTA.
as §1, §2

Chain of LCK protein (P06239 whole entry): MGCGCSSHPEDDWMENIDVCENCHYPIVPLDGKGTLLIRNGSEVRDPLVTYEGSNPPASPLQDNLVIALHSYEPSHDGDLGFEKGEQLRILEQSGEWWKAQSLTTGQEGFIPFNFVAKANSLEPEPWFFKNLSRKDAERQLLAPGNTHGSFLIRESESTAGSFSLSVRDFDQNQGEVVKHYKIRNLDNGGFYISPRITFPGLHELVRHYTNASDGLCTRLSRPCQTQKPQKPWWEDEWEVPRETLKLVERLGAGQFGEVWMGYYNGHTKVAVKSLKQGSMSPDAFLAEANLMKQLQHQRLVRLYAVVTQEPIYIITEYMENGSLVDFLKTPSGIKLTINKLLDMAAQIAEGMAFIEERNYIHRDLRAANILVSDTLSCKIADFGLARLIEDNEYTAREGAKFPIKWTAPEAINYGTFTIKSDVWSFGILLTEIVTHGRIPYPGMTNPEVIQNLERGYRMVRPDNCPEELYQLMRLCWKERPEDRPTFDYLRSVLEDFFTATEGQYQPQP
Chain of CSK protein (P41240 whole entry): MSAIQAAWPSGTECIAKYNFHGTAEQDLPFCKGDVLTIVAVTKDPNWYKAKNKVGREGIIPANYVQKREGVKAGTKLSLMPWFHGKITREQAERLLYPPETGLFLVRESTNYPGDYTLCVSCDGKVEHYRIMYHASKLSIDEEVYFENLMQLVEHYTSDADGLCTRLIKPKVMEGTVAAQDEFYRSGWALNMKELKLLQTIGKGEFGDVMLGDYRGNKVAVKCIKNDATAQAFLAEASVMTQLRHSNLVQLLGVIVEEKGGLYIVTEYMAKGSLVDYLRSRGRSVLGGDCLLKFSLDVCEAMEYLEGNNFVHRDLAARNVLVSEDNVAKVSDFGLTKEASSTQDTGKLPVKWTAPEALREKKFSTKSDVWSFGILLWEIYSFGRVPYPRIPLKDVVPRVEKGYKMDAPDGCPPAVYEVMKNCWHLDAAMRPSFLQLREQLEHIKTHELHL

On to `Nc1nccc(-c2sc(-c3ccccc3)nc2-c2cncc(NS(=O)(=O)c3c(F)cccc3F)c2)n1` [compound 25], for which the IC50 at LCK protein was above 1000 nM; against CSK protein it was 237 nM.
For the compound `CNc1nccc(-c2sc(-c3cncc(F)c3)nc2-c2cc(OC)cc(NS(=O)(=O)c3c(F)cccc3F)c2F)n1` [Compound 72], the half-maximal inhibitory concentration (IC50) on LCK protein was above 1000 nM; against CSK protein, 26.1 nM.
`Nc1nccc(-c2sc(-c3ccc(=O)[nH]c3)nc2-c2cccc(NS(=O)(=O)c3c(F)cccc3F)c2F)n1` [compound 28]: the values for the half-maximal inhibitory concentration (IC50) against LCK protein and on CSK protein were above 1000 nM and 63.3 nM, respectively.
For `Nc1nccc(-c2c(-c3cccc(NS(=O)(=O)c4c(F)cccc4F)c3F)nc3cc(C(F)(F)F)ccn23)n1` [Compound 105], in that order: above 1000 nM and 400 nM.
Regarding `CNc1nccc(-c2sc(-c3cnc(C)cn3)nc2-c2cccc(NS(=O)(=O)c3c(F)ccc(C)c3F)c2F)n1` [Compound 144], the IC50 against LCK protein was above 1000 nM; at CSK protein it was 23.9 nM.
For `Cc1ncc(-c2nc(-c3cccc(NS(=O)(=O)c4c(F)ccc(C)c4F)c3F)c(-c3ccnc(NCCO)n3)s2)cn1` [Compound 155], in that order: above 1000 nM and 16.6 nM.
For `O=S(=O)(Nc1cccc(-c2nc(C3CCCCC3)sc2-c2ccnc(Nc3ccc(N4CCOCC4)nc3)n2)c1F)c1c(F)cccc1F` [Compound 121], in that order: below 100 nM and 15.5 nM.
For `Cc1ccc(Cl)c(S(=O)(=O)Nc2cccc(-c3nc(-c4cncc(F)c4)sc3-c3ccnc(NC4CC4)n3)c2F)c1Cl` [Compound 139], the values for the half-inhibitory concentration (IC50) on LCK protein and against CSK protein were above 1000 nM and 2.7 nM, respectively.
For `O=S(=O)(Nc1cccc(-c2nc(-c3cncc(F)c3)sc2-c2ccnc(NCCO)n2)c1F)c1c(F)ccc(Cl)c1F` [Compound 172], in that order: above 1000 nM and 5.4 nM.
The like results for `CNc1nccc(-c2sc(-c3cncc(F)c3)nc2-c2cccc(NS(=O)(=O)c3c(F)ccc(C)c3F)c2F)n1` [Compound 53] were, in that order, above 1000 nM and 15.6 nM.
Turning to `Cc1ccc(F)c(S(=O)(=O)Nc2cccc(-c3nc(-c4ccccc4)sc3-c3ccnc(NCCO)n3)c2F)c1F` [Compound 131], the half-inhibitory concentration (IC50) was above 1000 nM against LCK protein and 13.1 nM against CSK protein.
For `CNc1nccc(-c2sc(-c3ccc(C)nn3)nc2-c2cccc(NS(=O)(=O)c3c(F)ccc(C)c3F)c2F)n1` [Compound 65], in that order: above 1000 nM and 14.9 nM.
Consider `CNc1nccc(-c2sc(-c3ccc(F)cn3)nc2-c2cccc(NS(=O)(=O)c3c(F)ccc(Cl)c3F)c2F)n1` [Compound 58], for which the figures for the IC50 at LCK protein and at CSK protein were above 1000 nM and 31.5 nM, respectively.
For `O=S(=O)(Nc1cccc(-c2nc(-c3cncc(F)c3)sc2-c2ccnc(NC3CC3)n2)c1F)c1c(F)ccc(Cl)c1F` [Compound 171], in that order: above 1000 nM and 5.6 nM.
For the compound `Nc1nccc(-c2sc(-c3cncc(C4CC4)c3)nc2-c2cccc(NS(=O)(=O)c3c(F)cccc3F)c2F)n1` [compound 48], the 50% inhibitory concentration (IC50) at LCK protein is above 1000 nM; against CSK protein, 75.8 nM.
For `Cc1ccc(Cl)c(S(=O)(=O)Nc2cccc(-c3nc(N4CCCCC4)sc3-c3ccnc(NCCO)n3)c2F)c1Cl` [Compound 178], in that order: above 1000 nM and 7.5 nM.
The like results for `CNc1nccc(-c2sc(-c3cncc(F)c3)nc2-c2cccc(NS(=O)(=O)c3c(F)cccc3F)c2F)n1` [Compound 74] were, in that order, above 1000 nM and 8.8 nM.
In the case of `COc1ccn2c(-c3ccnc(NCCO)n3)c(-c3cccc(NS(=O)(=O)c4c(Cl)ccc(C)c4Cl)c3F)nc2c1` [Compound 147], the IC50 on LCK protein is above 1000 nM; against CSK protein, 30.3 nM.
Regarding `Cc1ccc(Cl)c(S(=O)(=O)Nc2cccc(-c3nc(-c4ccc(F)cn4)sc3-c3ccnc(NC4CC4)n3)c2F)c1Cl` [Compound 137], the values for the concentration for half-maximal inhibition (IC50) on LCK protein and against CSK protein were above 1000 nM and 21.3 nM, respectively.
Turning to `COc1ccn2c(-c3ccnc(N)n3)c(-c3cccc(NS(=O)(=O)c4c(F)cccc4F)c3F)nc2c1` [compound 91], the half-maximal inhibitory concentration (IC50) against LCK protein was above 1000 nM; against CSK protein, 52.7 nM.
For `Nc1nccc(-c2sc(-c3ccc(C(F)(F)F)cc3)nc2-c2cccc(NS(=O)(=O)c3c(F)cccc3F)c2F)n1` [Compound 4], in that order: above 1000 nM and 328 nM.
As to `COc1ccn2c(-c3ccnc(NC4CC4)n3)c(-c3cccc(NS(=O)(=O)c4c(F)ccc(C)c4F)c3F)nc2c1` [Compound 129], the IC50 against LCK protein is above 1000 nM; against CSK protein, 7.4 nM.
For `CC(C)(C)c1nc(-c2cccc(NS(=O)(=O)c3c(F)cccc3F)c2F)c(-c2ccnc(Nc3ccc(N4CCOCC4)nc3)n2)s1` [compound 118], in that order: below 100 nM and 2.8 nM.
The like results for `Nc1nccc(-c2sc(-c3ccc(F)cn3)nc2-c2cccc(NS(=O)(=O)c3c(F)cccc3F)c2F)n1` [Compound 12] were, in that order, above 1000 nM and 61.6 nM.
For `CNc1nccc(-c2sc(N3CCCCC3)nc2-c2cccc(NS(=O)(=O)c3c(F)ccc(C)c3F)c2F)n1` [Compound 161], in that order: above 1000 nM and 10.1 nM.
Consider `CC(C)c1nc(-c2cccc(NS(=O)(=O)c3c(F)cccc3F)c2F)c(-c2ccnc(Nc3ccccc3)n2)s1` [Compound 120], for which the half-maximal inhibitory concentration (IC50) at LCK protein is below 100 nM; against CSK protein, 20.6 nM.
Consider `Nc1nccc(-c2[nH]c(-c3ccccc3)nc2-c2cccc(NS(=O)(=O)c3c(F)cccc3F)c2F)n1` [Compound 85], for which the half-inhibitory concentration (IC50) against LCK protein was 100 to 1000 nM; against CSK protein it was 33.2 nM.
For `CNc1nccc(-c2sc(-c3cnc(C)nc3)nc2-c2cccc(NS(=O)(=O)c3c(Cl)cccc3Cl)c2F)n1` [Compound 148], in that order: 100 to 1000 nM and 6.9 nM.
The like results for `Nc1nccc(-c2c(-c3cccc(NS(=O)(=O)c4c(F)cccc4F)c3F)nc3cc(C(=O)O)ccn23)n1` [Compound 96] were, in that order, above 1000 nM and 127 nM.
Consider `O=S(=O)(Nc1cccc(-c2nc(N3CCCCC3)sc2-c2ccnc(NC3CC3)n2)c1F)c1c(F)ccc(Cl)c1F` [Compound 185], for which the values for the half-maximal inhibitory concentration (IC50) against LCK protein and at CSK protein were above 1000 nM and 4.9 nM, respectively.
Consider `Cc1cccn2c(-c3ccnc(N)n3)c(-c3cccc(NS(=O)(=O)c4c(F)cccc4F)c3F)nc12` [Compound 93], for which the half-inhibitory concentration (IC50) at LCK protein is above 1000 nM; on CSK protein, 41.8 nM.
Turning to `CNc1nccc(-c2sc(-c3cncc(F)c3)nc2-c2cccc(NS(=O)(=O)c3c(F)cc(OC)cc3F)c2F)n1` [Compound 64], the IC50 at LCK protein was above 1000 nM; at CSK protein, 18.3 nM.
Take `CNc1nccc(-c2sc(N(C)CC(F)(F)F)nc2-c2cccc(NS(=O)(=O)c3c(F)cccc3F)c2F)n1` [Compound 181]: the figures for the concentration for half-maximal inhibition (IC50) against LCK protein and against CSK protein were 100 to 1000 nM and 7.8 nM, respectively.
Regarding `O=S(=O)(Nc1cccc(-c2nc(-c3ccc(F)cn3)sc2-c2ccnc(NCCO)n2)c1F)c1c(Cl)cccc1Cl` [Compound 133], the 50% inhibitory concentration (IC50) is above 1000 nM on LCK protein and 17.8 nM on CSK protein.
For `Cc1ncc(-c2nc(-c3cccc(NS(=O)(=O)c4c(Cl)ccc(C)c4Cl)c3F)c(-c3ccnc(N)n3)s2)cn1` [Compound 142], in that order: above 1000 nM and 10.5 nM.
The like results for `O=S(=O)(Nc1cccc(-c2nc(-c3ccc(F)cn3)sc2-c2ccnc(NC3CC3)n2)c1F)c1c(Cl)cccc1Cl` [Compound 135] were, in that order, above 1000 nM and 15.7 nM.
For the compound `CNc1nccc(-c2sc(N3CCCCC3)nc2-c2cccc(NS(=O)(=O)c3c(F)cccc3F)c2F)n1` [Compound 115], the IC50 against LCK protein was above 1000 nM; against CSK protein, 7.1 nM.
For `Nc1nccc(-c2sc(-c3ccc(F)cn3)nc2-c2cccc(NS(=O)(=O)c3c(Cl)cccc3Cl)c2F)n1` [Compound 132], the IC50 was 100 to 1000 nM on LCK protein and 62 nM against CSK protein.
Take `Nc1nccc(-c2sc(N3CCCCC3)nc2-c2cccc(NS(=O)(=O)c3c(F)cccc3F)c2F)n1` [Compound 111]: the IC50 at LCK protein was 100 to 1000 nM; against CSK protein it was 16.4 nM.
For `CNc1nccc(-c2sc(-c3cnccn3)nc2-c2cccc(NS(=O)(=O)c3c(F)cccc3F)c2F)n1` [Compound 76], in that order: above 1000 nM and 19.1 nM.
The like results for `Nc1nccc(-c2cn(C3CCCCC3)nc2-c2cccc(NS(=O)(=O)c3c(F)cccc3F)c2F)n1` [Compound 110] were, in that order, above 1000 nM and 221 nM.
In the case of `CNc1nccc(-c2c(-c3cccc(NS(=O)(=O)c4c(Cl)cccc4Cl)c3F)nc3cc(OC)ccn23)n1` [Compound 145], the half-maximal inhibitory concentration (IC50) was above 1000 nM against LCK protein and 113 nM on CSK protein.
